Experimental data reported in patent US10124065B2, “Lipids and lipid compositions for the delivery of active agents” (Novartis AG, priority 2013, dated 2018).

Columns and labels:
[1] = pKa measurement of cationic lipid (TNS fluorescence); format: physicochemical; conditions: pKa of the cationic lipid of formula (I); Table 4; listed as Ex. 38
Method: Unless indicated otherwise, all pKa's referred to herein were measured at standard temperature and pressure. Also, unless otherwise indicated, all references to pKa are references to pKa measured using the following technique. 2 mM solution of lipid in ethanol was prepared by weighing the lipid and then dissolving it in ethanol. 0.3 mM solution of fluorescent probe TNS in ethanol:methanol 9:1 was prepared by first making 3 mM solution of TNS in methanol and then diluting to 0.3 mM with ethanol. An aqueous buffer containing 200 mM sodium phosphate dibasic and 100 mM citric acid was prepared. […] Using the Hamilton Microlab Star high throughput liquid handler and Hamilton run control software Software, 7.5 uL of probe/lipid mix were added to 242.5 uL of buffer in a 1 mL 96 well plate (model NUNC 260252, […] Nunc International). This was done with all twelve buffers. After mixing in 1 mL 96 well plate, 100 uL of each probe/lipid/buffer mixture was transferred to a 250 uL black with clear bottom 96 well plate (model COSTAR 3904, Corning). The fluorescence measurements are carried out on the SpectraMax M5 spectrophotometer using software SoftMax pro 5.2 and following parameters: After the measurement, the background fluorescence value of an empty well on the 96 well plate was subtracted from each probe/lipid/buffer mixture. The fluorescence intensity values were then normalized to the value at lowest pH. The normalized fluorescence intensity vs. pH chart was then plotted in the Microsoft Excel software. The twelve points were connected with a smooth line. The point on the line at which the normalized fluorescence intensity was equal to 0.5 was found. […] The pKa determined using this method is precise to about 0.1 pKa units.

[2] = Polydispersity index (PDI) of lipid nanoparticle (dynamic light scattering); format: physicochemical
Method: Unless indicated otherwise, all PDIs referred to herein are the PDI of the fully formed nanoparticle, as measured by dynamic light scattering on a Malvern Zetasizer. The nanoparticle sample was diluted in phosphate buffered saline (PBS) so that the count rate was approximately 200-400 kcts. The data is presented in Tables 4 and 5 as a weighted average of the intensity measure.

Row | Compound | pKa [1] | PDI ([2]; FVII siRNA LNP, Chol/DSPC/PEG-DMG, molar ratio 45/44/9/2) | PDI ([2]; FVII siRNA LNP, Chol/DSPC/S010, molar ratio 45/44/9/2) | PDI ([2]; PLK1-424 siRNA LNP, Chol/DSPC/S010 45/44/9/2) | PDI ([2]; leptin mRNA lipid nanoparticles)
1 | CCCCC/C=C\C/C=C\CCCCCCCC(=O)OCCCCOc1cc(CN(C)C)cc(OCCCCOC(=O)CCCCCCC/C=C\C/C=C\CCCCC)c1 [Example 38, (9Z,9′Z,12Z,12′Z)-((5-((dimethylamino)methyl)-1,3-phenylene)bis(oxy))bis(butane-4,1-diyl)bis(octadeca-9,12-dienoate)] | 5.9 | – | – | – | –
2 | CCCCCCCCCCOC(=O)CCCCCCCOc1cc(CN(C)C)cc(OCCCCCCCC(=O)OCCCCCCCCCC)c1 [Example 57, didecyl 8,8′-((5-((dimethylamino)methyl)-1,3-phenylene)bis(oxy))dioctanoate] | – | 0.03 | 0.059 | 0.038 | 0.102
